What is called pKi is −log10 of the Ki, conventionally taken in molar units.

pKi: −log10 of the molar value. Values joined by “and” are separate entries in the source; they are usually repeats but may differ in a detail not shown here. Equal values may be shown once. Bounds are passed on as bounds.

The test deals with T1, human GCGR (Homo sapiens, UniProt P47871).
T1 construct: expressed in transfected cells; host or cells: HEK293 (hGluc-1HEK), pcDNA3.1, G418 selection
T1 sequence (P47871 26-477): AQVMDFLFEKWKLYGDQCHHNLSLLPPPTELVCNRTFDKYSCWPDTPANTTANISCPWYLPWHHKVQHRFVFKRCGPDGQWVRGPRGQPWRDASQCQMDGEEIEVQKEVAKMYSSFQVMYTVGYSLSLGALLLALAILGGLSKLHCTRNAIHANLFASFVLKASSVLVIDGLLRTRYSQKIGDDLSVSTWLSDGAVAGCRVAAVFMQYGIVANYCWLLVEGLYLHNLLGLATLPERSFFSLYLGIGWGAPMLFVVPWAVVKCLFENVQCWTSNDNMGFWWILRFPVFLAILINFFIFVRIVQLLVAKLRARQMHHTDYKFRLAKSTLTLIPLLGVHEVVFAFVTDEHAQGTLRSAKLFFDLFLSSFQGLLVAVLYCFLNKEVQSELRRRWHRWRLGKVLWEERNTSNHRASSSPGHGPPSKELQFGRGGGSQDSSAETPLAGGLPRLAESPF
Kind of test: Cellular functional assay, cAMP readout (glucagon-stimulated cAMP, LANCE TR-FRET). The class given is cell-based. To be noted: HEK293 cells stably expressing full-length human GCGR; glucagon 100 pM; IC50 converted to Ki; read-out: Inhibition of cAMP Ki. As for the experimental part: IC50 Values in Cellular Functional Assays: cAMP Readout
Full-length human GCGR (Accession Number: NM000160) subcloned into pcDNA3.1 was stably transfected into HEK293 cells (hGluc-1HEK) and maintained under G418 selection (500 μg/mL). Cell cultures were maintained in DMEM/F12 media supplemented with 10% FBS and 1% GlutaMax™ Supplement (Available from ThermoFisher Scientific, catalog #35050061). Glucagon stimulated cAMP was quantified using LANCE technology as per manufacturer instructions. On the day of the experiment, spent media was removed and cells were washed with Hank's Buffered Saline solution (HBSS), and cells harvested with non-enzymatic cell dissociation solution, then washed once with HBSS. Cells were re-suspended in stimulation buffer at a concentration of 0.83×10^6 cells/ml and cAMP detection antibody was added. 6 μl/well of this solution was then dispensed in a 384 well plate (cell density 5000 cells/well). Test compound was serially diluted in DMSO and 50 nl were dispensed on top of the cell solution and allowed to incubate for 30 minutes. 6 μl of a 2× glucagon solution (final concentration in assay 100 pM) was then added and the reaction was terminated after 5 minutes with the addition of detection mix. The resulting mixture was incubated, protected from light for 1.5 h. cAMP levels were quantified by TR-FRET in an EnVision instrument against a known standard. IC50's were generated by using a non-linear regression macro driven in Excel and converted to Ki values.
In general terms: Time-resolved FRET reads energy transfer from a long-lived donor to a nearby acceptor.
Turning to `Cc1c(-c2ccc(C(F)(F)F)cc2Cl)ccc2nn(C(CC(C)C)c3ccc(C(=O)NCCC(=O)O)cc3)cc12` (centres unmarked) [Compound #18, 3-(4-(1-(5-(2-Chloro-4-(trifluoromethyl)phenyl)-4-methyl-2H-indazol-2-yl)-3-methylbutyl)benzamido)propanoic acid], the negative-log Ki (pKi) is 7.85 and 7.36.

As to `CC(C)CC(c1ccc(C(=O)NCCC(=O)O)cc1)n1ncc2cc(-c3ccc4cnn(C)c4c3)ccc21` (centres unmarked) [compound 116], the pKi is 6.12.

As for `Cc1cc(Cl)ccc1-c1ccc2nn(C(CC(C)(C)C)c3ccc(C(=O)NCCC(=O)O)cc3)cc2c1` (centres unmarked) [compound 195], the negative logarithm of the Ki (pKi) is 7.38.

Turning to `Cc1cc(C(F)(F)F)ccc1-c1cc2cn(C(CC(C)C)c3ccc(C(=O)NCCC(=O)O)nc3)nc2cc1Cl` (centres unmarked) [Compound #176, 3-[[5-[1-[6-Chloro-5-[2-methyl-4-(trifluoromethyl)phenyl]indazol-2-yl]-3-methyl-butyl]pyridine-2-carbonyl]amino]propanoic acid], the negative-log Ki (pKi) was 7.30.

With `CC(C)CC(c1ccc(C(=O)NCCC(=O)O)nc1)n1ncc2cc(-c3cc4ccccc4s3)ccc21` (centres unmarked) [compound 48], the pKi is 6.33.

With `Cc1cc2nn(C(CC(C)C)c3ccc(C(=O)NCCC(=O)O)cc3)cc2cc1-c1ccc(C(F)(F)F)cc1` (centres unmarked) [Compound #134, 3-[[4-[3-Methyl-1-[6-methyl-5-[4-(trifluoromethyl)phenyl]indazol-2-yl]butyl]benzoyl]amino]propanoic acid], the pKi was 6.71.

As for `CC(C)(F)CC(c1ccc(C(=O)NCCC(=O)O)cc1)n1ncc2cc(-c3ccc(C(F)(F)F)cc3)ccc21` (centres unmarked) [Compound #185, 3-(4-(3-Fluoro-3-methyl-1-(5-(4-(trifluoromethyl)phenyl)-1H-indazol-1-yl)butyl)benzamido)propanoic acid], the pKi was 6.37.

With `Cc1cc(Cl)ccc1-c1ccc2nn(C(CC(C)C)c3ccc(C(=O)NCCC(=O)O)cc3)cc2c1C` (centres unmarked) [Compound #20, 3-(4-(1-(5-(4-Chloro-2-methylphenyl)-4-methyl-2H-indazol-2-yl)-3-methylbutyl)benzamido)propanoic acid], the pKi is 7.60.

As to `CCCC(c1ccc(C(=O)NCCC(=O)O)cc1)n1cc2cc(-c3ccc(C(F)(F)F)cc3)ccc2n1` (centres unmarked) [compound 91], the pKi was 6.90.

`CCCCCCC(c1ccc(C(=O)NCCC(=O)O)nc1)n1cc2cc(-c3ccc(Cl)cc3C)ccc2n1` (centres unmarked) [compound 203]: the negative-log Ki (pKi) is 7.12.

Consider `COc1c(-c2ccc(Cl)cc2C)ccc2c1cnn2C(CC(C)C)c1ccc(C(=O)NCCC(=O)O)cc1` (centres unmarked) [Compound #99, 3-(4-(1-(5-(4-Chloro-2-methylphenyl)-4-methoxy-1H-indazol-1-yl)-3-methylbutyl)benzamido)propanoic acid], for which the negative logarithm of the Ki (pKi) was 6.84.

On to `CC(C)CC(c1ccc(C(=O)NCCC(=O)O)cc1)n1ncc2cc(-c3cnn(C)c3)ccc21` (centres unmarked) [compound 164], for which the pKi was under 5.28.

On to `CC(C)CC(c1ccc(C(=O)NCCC(=O)O)cc1)n1ncc2cc(-c3ccc(C(C)(C)C)cc3)ccc21` (centres unmarked) [Compound #1, 3-(4-(1-(5-(4-(tert-Butyl)phenyl)-1H-indazol-1-yl)-3-methylbutyl)benzamido)propanoic acid], for which the negative-log Ki (pKi) was 7.05 and 6.80.

`Cc1cc(Cl)ccc1-c1ccc2nn(C(CCC(F)(F)F)c3ccc(C(=O)NCCC(=O)O)cc3)cc2c1` (centres unmarked) [Compound #8, 3-[[4-[1-[5-(4-Chloro-2-methyl-phenyl)indazol-2-yl]-4,4,4-trifluorobutyl]benzoyl]amino]propanoic acid]: the pKi is 7.23.

For the compound `CC(C)CC(c1ccc(C(=O)NCCC(=O)O)cc1)n1cc2cc(-c3ccsc3)ccc2n1` (centres unmarked) [compound 51], the pKi is 6.12.

For the compound `Cc1cc(Cl)ccc1-c1ccc2nn(C(CC3CCCCC3)c3ccc(C(=O)NCCC(=O)O)nc3)cc2c1` (centres unmarked) [compound 249], the negative-log Ki (pKi) is 7.38.

`O=C(O)CCNC(=O)c1ccc(C(CCC2CCCCC2)n2cc3cc(-c4ccc(C(F)(F)F)cc4)ccc3n2)cc1` (centres unmarked) [compound 133]: the pKi is 7.04.

`CC(C)(C)CC(c1ccc(C(=O)NCCC(=O)O)nc1)n1cc2cc(-c3ccc(C(F)(F)F)cc3)ccc2n1` (centres unmarked) [compound 212]: the negative-log Ki (pKi) is 7.05.

As for `Cc1cc(Cl)ccc1-c1ccc2c(cnn2C(CC(C)(C)C)c2ccc(C(=O)NCCC(=O)O)cc2)c1` (centres unmarked) [compound 151], the pKi is 7.05.

`CC(C)CC(c1ccc(C(=O)NCCC(=O)O)cc1)n1ncc2cc(-c3ccc(Cl)cc3Cl)ccc21` (centres unmarked) [Compound #9, 3-(4-(1-(5-(2,4-Dichlorophenyl)-1H-indazol-1-yl)-3-methylbutyl)benzamido)propanoic acid]: the negative-log Ki (pKi) was 6.72.

In the case of `O=C(O)CCNC(=O)c1ccc(C(CCC(F)(F)F)n2cc3cc(-c4ccc(C(F)(F)F)cc4Cl)ccc3n2)cc1` (centres unmarked) [Compound #16, 3-[[4-[1-[5-[2-Chloro-4-(trifluoromethyl)phenyl]indazol-2-yl]-4,4,4-trifluorobutyl]benzoyl]amino]propanoic acid], the pKi was 7.19.

For `Cc1ccc(-c2ccc3c(cnn3C(CC(C)C)c3ccc(C(=O)NCCC(=O)O)cc3)c2C)c(Cl)c1` (centres unmarked) [Compound #105, 3-(4-(1-(5-(2-Chloro-4-methylphenyl)-4-methyl-1H-indazol-1-yl)-3-methylbutyl)benzamido)propanoic acid], the pKi is 6.10.

Regarding `CC(C)CC(c1ccc(C(=O)NCCC(=O)O)cc1)n1cc2cc(-c3ccc(C(F)(F)F)cc3Cl)ccc2n1` (centres unmarked) [Compound #225, 3-(4-(1-(5-(2-Chloro-4-(trifluoromethyl)phenyl)-2H-indazol-2-yl)-3-methylbutyl)benzamido)propanoic acid], the pKi is 6.82.

Consider `CC(C)CCC(c1ccc(C(=O)NCCC(=O)O)cc1)n1cc2cc(-c3ccc(C(F)(F)F)cc3)ccc2n1` (centres unmarked) [compound 27], for which the pKi is 6.98.

Take `CC(C)CC(c1ccc(C(=O)NCCC(=O)O)cc1)n1ncc2cc(-c3cc4ccccc4s3)ccc21` (centres unmarked) [compound 73]: the pKi was 7.21.

Consider `CC(C)CC(c1ccc(C(=O)NCCC(=O)O)nc1)n1cc2cc(-c3ccc(C(F)(F)F)cc3Cl)ccc2n1` (centres unmarked) [Compound #53, 3-(5-(1-(5-(2-Chloro-4-(trifluoromethyl)phenyl)-2H-indazol-2-yl)-3-methylbutyl)picolinamido)pr-opanoic acid], for which the pKi is 6.98.

Take `Cc1c(-c2ccc(C(C)(C)C)cc2)ccc2nn(C(CC(C)C)c3ccc(C(=O)NCCC(=O)O)cc3)cc12` (centres unmarked) [Compound #78, 3-(4-(1-(5-(4-(tert-Butyl)phenyl)-4-methyl-2H-indazol-2-yl)-3-methylbutyl)benzamido)propanoic acid]: the pKi is 7.46.

As to `COc1c(-c2ccc(C(F)(F)F)cc2Cl)ccc2nn(C(CC(C)C)c3ccc(C(=O)NCCC(=O)O)nc3)cc12` (centres unmarked) [Compound #178, 3-(5-(1-(5-(2-Chloro-4-(trifluoromethyl)phenyl)-4-methoxy-2H-indazol-2-yl)-3-methylbutyl)picolinamido)propanoic acid], the negative logarithm of the Ki (pKi) was 7.66.

Regarding `O=C(O)CCNC(=O)c1ccc(C(CCC(F)(F)F)n2ncc3cc(-c4ccc(Cl)cc4Cl)ccc32)cc1` (centres unmarked) [Compound #112, 3-[[4-[1-[5-(2,4-Dichlorophenyl)indazol-1-yl]-4,4,4-trifluorobutyl]benzoyl]amino]propanoic acid], the pKi was 6.39.

These data come from US10000473B2, “Indazole derivatives useful as glucagon receptor antagonists” (Janssen Pharmaceutica NV, priority 2016, dated 2018).
